Reference: patent US9591856B2, “Fungicide compositions comprising fluopyram, at least one succinate dehydrogenase (SDH) inhibitor and optionally at least one triazole fungicide” (priority 2012, dated 2017)

Columns and labels:
[1] = tested on: Pyrenophora tritici-repentis (PYRNTR); test: Pyrenophora tritici-repentis test (wheat), field trial DEU-NWU3; format: in vivo; conditions: sprayed twice, 43 DAB, BBCH 83, 75 g/ha (I), 75 g/ha (II), 150 g/ha (III), 75 + 75 + 150 g/ha combination; for Rating Scale: % Rating Type: Mean (Plant Part Rated: FL-0-1): disease rating, untreated control 2.8
[2] = tested on: Septoria tritici (SEPTTR); test: Septoria tritici test (wheat), field trial FRA-AJ28; format: in vivo; conditions: sprayed twice, 47 DAB, BBCH 77, 75 g/ha (I), 75 g/ha (II), 150 g/ha (III), 75 + 75 + 150 g/ha combination; for Rating Scale: % Rating Type: Mean (Plant Part Rated: LEAF): disease rating, untreated control 95.0
[3] = tested on: Leptosphaeria nodorum (LEPTNO); test: Leptosphaeria nodorum test (wheat), field trial DEU-S826; format: in vivo; conditions: sprayed twice, 18 DAB, BBCH 69, 75 g/ha (I), 75 g/ha (II), 150 g/ha (III), 75 + 75 + 150 g/ha combination; for Rating Scale: % Rating Type: Mean (Plant Part Rated: LEALOW): disease rating, untreated control 23.1
[4] = tested on: Septoria tritici (Mycosphaerella graminicola); test: Protective and curative potential against Septoria tritici in winter wheat, visual assessment of infested leaf area; format: in vivo; conditions: assessed 21 days after inoculation, dose rates Table 5: BIX 0.6, BIX+FLU 0.75, BIX+PTZ 1, BIX+FLU+PTZ 1 l/ha
[5] = tested on: Septoria tritici (Mycosphaerella graminicola); test: Protective and curative potential against Septoria tritici in winter wheat, quantification of Septoria-DNA (SeptoCast); format: in vivo; conditions: 21 days after inoculation, dose rates Table 5
[6] = tested on: Drechslera tritici-repentis (DTR, also named Pyrenophora tritici-repentis); test: Curative potential against Drechslera tritici-repentis (tan spot) in winter wheat; format: in vivo; conditions: infected leaf area 21 days after inoculation; for Efficacy [% Abbott] 1 dai: application 1 day after inoculation; for Efficacy [% Abbott] 4 dai: application 4 days after inoculation
[7] = tested on: Alternaria alternata SDH-mutants; conditions: in vitro; Avenot et al., Crop Protection 29 (2010) 643-651; cited from earlier work
[8] = curative, application 1 day after inoculation
[9] = curative, application 4 days after inoculation
[10] = curative, application 8 days after inoculation
[11] = curative, application 11 days after inoculation
[12] = preventive, application 1 day before inoculation
[13] = preventive, application 4 days before inoculation
[14] = preventive, application 8 days before inoculation
[15] = preventive, application 11 days before inoculation
[16] = solo compound at 97.5 g a.i./ha

Row | SMILES | Rating Scale: % Rating Type: Mean (Plant Part Rated: FL-0-1) [1] | % ABBOTT [1] | Efficacy [%] % found [1] | Rating Scale: % Rating Type: Mean (Plant Part Rated: LEAF) [2] | % ABBOTT [2] | Efficacy [%] % found [2] | Rating Scale: % Rating Type: Mean (Plant Part Rated: LEALOW) [3] | % ABBOTT [3] | Efficacy [%] % found [3] | Efficacy [% Abbott] 1 dai [6, 16] | Efficacy [% Abbott] 4 dai [6, 16] | Efficacy [% Abbott] 1 dai ([6]; solo compound at 125 g a.i./ha) | Efficacy [% Abbott] 4 dai ([6]; solo compound at 125 g a.i./ha) | effect on mycelial growth of boscalid-resistant isolates carrying SDH-mutations [7] | also measured
1 | OC(Cc1ccccc1Cl)(Cn1nc[nH]c1=S)C1(Cl)CC1 (stereo not shown) [(III) Prothioconazole, prothioconazole] | 1.8% | 36.4% | 36.4% | 30.0% | 68.4% | 68.4% | 6.4% | 72.4% | 72.4% | – | – | – | – | – | –
2 | Cn1cc(C(=O)Nc2ccc(F)cc2-c2ccc(Cl)c(Cl)c2)c(C(F)F)n1 [Bixafen, bixafen] | 2.3% | 18.2% | 18.2% | 36.3% | 61.8% | 61.8% | 14.7% | 36.5% | 36.5% | 91 % Abbott | 38 % Abbott | 91 % Abbott | 32 % Abbott | – | Visual assessment [%] ABBOTT, 1 dai [4, 8]: 100%; Visual assessment [%] ABBOTT, 4 dai [4, 9]: 100%; Visual assessment [%] ABBOTT, 8 dai [4, 10]: 81.1%; Visual assessment [%] ABBOTT, 11 dai [4, 11]: 80.2%; Visual assessment [%] ABBOTT, 1 dbi [4, 12]: 100%; Visual assessment [%] ABBOTT, 4 dbi [4, 13]: 100%; Visual assessment [%] ABBOTT, 8 dbi [4, 14]: 96.7%; Visual assessment [%] ABBOTT, 11 dbi [4, 15]: 88.7%; DNA Quantification [Septoria DNA], relative copynumbers, 1 dai [5, 8]: 135 n; DNA Quantification [Septoria DNA], relative copynumbers, 4 dai [5, 9]: 416 n; DNA Quantification [Septoria DNA], relative copynumbers, 8 dai [5, 10]: 10421 n; DNA Quantification [Septoria DNA], relative copynumbers, 11 dai [5, 11]: 19806 n; DNA Quantification [Septoria DNA], relative copy numbers, 1 dbi [5, 12]: 120 n; DNA Quantification [Septoria DNA], relative copy numbers, 4 dbi [5, 13]: 141 n; DNA Quantification [Septoria DNA], relative copy numbers, 8 dbi [5, 14]: 428 n; DNA Quantification [Septoria DNA], relative copy numbers, 11 dbi [5, 15]: 2853 n
3 | O=C(NCCc1ncc(C(F)(F)F)cc1Cl)c1ccccc1C(F)(F)F [Fluopyram, N-{2-[3-chloro-5-(trifluoromethyl)-2-pyridyl]ethyl}-α,α,α-trifluoro-ortho-toluamide] | 2.3% | 18.2% | 18.2% | 52.5% | 44.7% | 44.7% | 10.9% | 53.0% | 53.0% | 97 % Abbott | 49 % Abbott | – | – | strongly inhibited the mycelial growth | –
4 | Cn1cc(C(=O)Nc2ccccc2-c2cc(F)c(F)c(F)c2)c(C(F)F)n1 [Fluxapyroxad, fluxapyroxad] | – | – | – | – | – | – | – | – | – | 93 % Abbott | 24 % Abbott | 94 % Abbott | 32 % Abbott | – | –
5 | CC(C)CC(C)c1sccc1NC(=O)c1cn(C)nc1C(F)(F)F (stereo not shown) [penthiopyrad] | – | – | – | – | – | – | – | – | – | – | – | – | – | not affected | –
